Experimental data reported in patent US10023602B2, “Hamamelitannin analogues and uses thereof” (Universiteit Gent, priority 2014, dated 2018).

What was measured:
[1] = test system: methicillin resistant S. aureus Mu50 strain (S. aureus ATCC700699) biofilm; assay: Biofilm susceptibility to vancomycin, pre-treatment regimen (biofilm formed in presence of compound, then vancomycin); type: cell-based; conditions: for Pretreat (100 μM): percentage Colony Forming Units (CFU's) per biofilm: compound 100 μM during biofilm formation; for Pretreat (100 μM): percentage Colony Forming Units (CFU's) per biofilm / Pretreat. (25 μM): percentage Colony Forming Units (CFU's) per biofilm: then VAN 20 μg/ml, compared to the untreated (negative) control; for Pretreat. (25 μM): percentage Colony Forming Units (CFU's) per biofilm: compound 25 μM during biofilm formation; for EC50: concentration needed to get 50% killing compared to antibiotic alone (VAN 20 μg/ml) and complete killing, read-out: Pretreat. (EC50)
Description: (§1) The compounds were evaluated for their effect on biofilm susceptibility both under pre-treatment and combination treatment regimens. In the pre-treatment regimen, a methicillin resistant S. aureus Mu50 strain (S. aureus ATCC700699) was allowed to form biofilms in the presence of the compounds after which the biofilm was treated with vancomycin (20 μg/ml). In the combination treatment regimen, S. aureus Mu50 was allowed to form a mature biofilm after which it was treated with a combination of a compound and vancomycin. In brief, 100 μl of a standardized inoculum (10^8 CFU/ml) was placed in the wells of a round-bottom 96-well microtiter plate. The cells were allowed to adhere to the plate in the absence (combined treatment) or presence (pre-treatment) of the compounds (0.1-250 μM) for 4 h at 37° C. After this adhesion step, non-adhered cells were removed, the wells were rinsed and fresh medium with or without the compounds was added. The plates were incubated for an additional 20 h at 37° C. After this, the medium was removed, biofilms were rinsed with physiological saline and vancomycin (20 μg/ml) was added alone (pre-treatment) or with the compounds (combined treatment, 0.1-250 μM). Plates were placed at 37° C. for 24 h after which medium was removed, wells were rinsed and the surviving cells in each condition were collected. The number of surviving cells under each condition was compared to vancomycin treatment alone and was assessed by conventional plating. The REF compound (hamamelitannin) was also observed for its effect on biofilm susceptibility towards other antibiotics (incl. vancomycin, cefoxitin, tobramycin, cefazolin, cefalonium, daptomycin, linezolide and cephalexin). Biofilms were formed as described above and were treated with the antibiotics alone or in combination with the REF compound (250 μM). The number of surviving cells under each condition was compared to the untreated control biofilm and was assessed by conventional plating.

[2] = test system: methicillin resistant S. aureus Mu50 strain (S. aureus ATCC700699) biofilm; assay: Biofilm susceptibility to vancomycin, combination treatment regimen (mature biofilm treated with compound plus vancomycin); type: cell-based; conditions: for Combin. (100 μM): percentage Colony Forming Units (CFU's) per biofilm: compound 100 μM together with VAN 20 μg/ml on mature biofilm; for Combin. (100 μM): percentage Colony Forming Units (CFU's) per biofilm / Combin. (25 μM): percentage Colony Forming Units (CFU's) per biofilm: compared to the untreated (negative) control; for Combin. (25 μM): percentage Colony Forming Units (CFU's) per biofilm: compound 25 μM together with VAN 20 μg/ml on mature biofilm; for EC50: concentration needed to get 50% killing compared to antibiotic alone (VAN 20 μg/ml) and complete killing, read-out: Combin. (EC50)
Description: as §1

## COc1ccc(C(=O)NC[C@H]2OC[C@@](O)(CNC(=O)c3ccccc3)[C@@H]2O)cc1OC [compound 183, N-(((2R,3R,4S)-4-(benzamidomethyl)-3,4-dihydroxytetrahydrofuran-2-yl)methyl)-3,4-dimethoxybenzamide]
[1]
  Pretreat (100 μM): percentage Colony Forming Units (CFU's) per biofilm: 60.04 percentage
[2]
  Combin. (100 μM): percentage Colony Forming Units (CFU's) per biofilm: 61.60 percentage

## O=C(NC[C@]1(O)CO[C@H](CNC(=O)c2ccccc2Cl)[C@H]1O)c1ccoc1 [compound 247, N-(((3S,4R,5R)-5-((2-chlorobenzamido)methyl)-3,4-dihydroxytetrahydrofuran-3-yl)methyl)furan-3-carboxamide]
[1]
  Pretreat. (25 μM): percentage Colony Forming Units (CFU's) per biofilm: 42.14 percentage
  EC50: 68.5 µM
[2]
  Combin. (25 μM): percentage Colony Forming Units (CFU's) per biofilm: 49.94 percentage
  EC50: 76.7 µM

## O=C(NC[C@]1(O)CO[C@H](CNC(=O)C2CCCCC2)[C@H]1O)c1ccccc1 [compound 191, N-(((3S,4R,5R)-5-(cyclohexanecarboxamidomethyl)-3,4-dihydroxytetrahydrofuran-3-yl)methyl)benzamide]
[1]
  Pretreat (100 μM): percentage Colony Forming Units (CFU's) per biofilm: 32.28 percentage
[2]
  Combin. (100 μM): percentage Colony Forming Units (CFU's) per biofilm: 19.28 percentage

## O=C(NC[C@]1(O)CO[C@H](CNC(=O)c2ccccc2I)[C@H]1O)c1ccccc1 [compound 179, N-(((2R,3R,4S)-4-(benzamidomethyl)-3,4-dihydroxytetrahydrofuran-2-yl)methyl)-2-iodobenzamide]
[1]
  Pretreat (100 μM): percentage Colony Forming Units (CFU's) per biofilm: 3.84 percentage
  EC50: 1.85 µM
[2]
  Combin. (100 μM): percentage Colony Forming Units (CFU's) per biofilm: 16.46 percentage
  EC50: 20.4 µM

## O=C(NC[C@]1(O)CO[C@H](CNC(=O)c2ccccc2Cl)[C@H]1O)c1cccnc1 [compound 243, N-(((3S,4R,5R)-5-((2-chlorobenzamido)methyl)-3,4-dihydroxytetrahydrofuran-3-yl)methyl)nicotinamide]
[1]
  Pretreat. (25 μM): percentage Colony Forming Units (CFU's) per biofilm: 85.00 percentage
[2]
  Combin. (25 μM): percentage Colony Forming Units (CFU's) per biofilm: 51.83 percentage

## O=C(NC[C@]1(O)CO[C@H](CNCc2ccccc2)[C@H]1O)c1ccccc1 [compound 228, N-(((3S,4R,5R)-5-((benzylamino)methyl)-3,4-dihydroxytetrahydrofuran-3-yl)methyl)benzamide]
[1]
  Pretreat (100 μM): percentage Colony Forming Units (CFU's) per biofilm: 18.68 percentage
  EC50: 41.2 µM
[2]
  Combin. (100 μM): percentage Colony Forming Units (CFU's) per biofilm: 22.13 percentage
  EC50: 45.2 µM

## O=C(NC[C@]1(O)CO[C@H](CN2C(=O)c3ccccc3C2=O)[C@H]1O)c1ccccc1 [compound 173, N-(((3S,4R,5R)-5-((1,3-dioxoisoindolin-2-yl)methyl)-3,4-dihydroxytetrahydrofuran-3-yl)methyl)benzamide]
[1]
  Pretreat (100 μM): percentage Colony Forming Units (CFU's) per biofilm: 11.18 percentage
  EC50: 5.01 µM
[2]
  Combin. (100 μM): percentage Colony Forming Units (CFU's) per biofilm: 8.805 percentage
  EC50: 8.3 µM

## O=C(NC[C@H]1OC[C@@](O)(CNC(=O)c2ccccc2)[C@@H]1O)c1cccc(C(F)(F)F)c1 [compound 166, N-(((2R,3R,4S)-4-(benzamidomethyl)-3,4-dihydroxytetrahydrofuran-2-yl)methyl)-3-(trifluoromethyl)benzamide]
[1]
  Pretreat (100 μM): percentage Colony Forming Units (CFU's) per biofilm: 10.16 percentage
  EC50: 9.13 µM
[2]
  Combin. (100 μM): percentage Colony Forming Units (CFU's) per biofilm: 12.34 percentage
  EC50: 12.3 µM

## O=C(NC[C@]1(O)CO[C@H](CNC(=O)c2ccccc2Cl)[C@H]1O)c1ccc(-c2ccccc2)cc1 [compound 252, N-(((3S,4R,5R)-5-((2-chlorobenzamido)methyl)-3,4-dihydroxytetrahydrofuran-3-yl)methyl)-[1,1′-biphenyl]-4-carboxamide]
[1]
  Pretreat (100 μM): percentage Colony Forming Units (CFU's) per biofilm: 2.25 percentage
  EC50: 11.8 µM
[2]
  Combin. (100 μM): percentage Colony Forming Units (CFU's) per biofilm: 29.40 percentage
  EC50: 69.2 µM

## O=C(NC[C@]1(O)CO[C@H](CNC(=S)Nc2ccccc2)[C@H]1O)c1ccccc1 [compound 224, N-(((3S,4R,5R)-3,4-dihydroxy-5-((3-phenylthioureido)methyl)tetrahydrofuran-3-yl)methyl)benzamide]
[1]
  Pretreat (100 μM): percentage Colony Forming Units (CFU's) per biofilm: 20.22 percentage
[2]
  Combin. (100 μM): percentage Colony Forming Units (CFU's) per biofilm: 27.33 percentage

## O=C(NC[C@]1(O)CO[C@H](CNC(=O)c2ccccc2Cl)[C@H]1O)c1cccc(F)c1 [compound 240, 2-chloro-N-(((2R,3R,4S)-4-((3-fluorobenzamido)methyl)-3,4-dihydroxytetrahydrofuran-2-yl)methyl)benzamide]
[1]
  Pretreat. (25 μM): percentage Colony Forming Units (CFU's) per biofilm: 118.37 percentage
[2]
  Combin. (25 μM): percentage Colony Forming Units (CFU's) per biofilm: 91.32 percentage

## O=C(NC[C@]1(O)CO[C@H](CNC(=O)c2c(Cl)cc(Cl)cc2Cl)[C@H]1O)c1ccccc1 [compound 194, N-(((2R,3R,4S)-4-(benzamidomethyl)-3,4-dihydroxytetrahydrofuran-2-yl)methyl)-2,4,6-trichlorobenzamide]
[1]
  Pretreat (100 μM): percentage Colony Forming Units (CFU's) per biofilm: 20.50 percentage
[2]
  Combin. (100 μM): percentage Colony Forming Units (CFU's) per biofilm: 13.31 percentage

## O=C(NC[C@H]1OC(O)[C@@](O)(CNC(=O)c2ccccc2)[C@@H]1O)c1ccccc1 (stereo partly drawn) [compound 21, N,N′-(((2R,3R,4R)-3,4,5-trihydroxytetrahydrofuran-2,4-diyl)bis(methylene))dibenzamide]
[1]
  Pretreat (100 μM): percentage Colony Forming Units (CFU's) per biofilm: 18.04 percentage
  EC50: 73.6 µM
[2]
  Combin. (100 μM): percentage Colony Forming Units (CFU's) per biofilm: 56.02 percentage
  EC50: 154 µM

## Cn1cc(C(=O)NC[C@H]2OC[C@@](O)(CNC(=O)c3ccccc3)[C@@H]2O)c2ccccc21 [compound 187, N-(((2R,3R,4S)-4-(benzamidomethyl)-3,4-dihydroxytetrahydrofuran-2-yl)methyl)-1-methyl-1H-indole-3-carboxamide]
[1]
  Pretreat (100 μM): percentage Colony Forming Units (CFU's) per biofilm: 32.91 percentage
[2]
  Combin. (100 μM): percentage Colony Forming Units (CFU's) per biofilm: 29.24 percentage

## COc1ccc(C(=O)NC[C@H]2OC[C@@](O)(CNC(=O)c3ccccc3)[C@@H]2O)cc1 [compound 154, N-(((2R,3R,4S)-4-(benzamidomethyl)-3,4-dihydroxytetrahydrofuran-2-yl)methyl)-4-methoxybenzamide]
[1]
  Pretreat (100 μM): percentage Colony Forming Units (CFU's) per biofilm: 19.34 percentage
[2]
  Combin. (100 μM): percentage Colony Forming Units (CFU's) per biofilm: 22.56 percentage

## Cc1ccc(C(=O)NC[C@H]2OC[C@@](O)(CNC(=O)c3ccccc3)[C@@H]2O)cc1C [compound 180, N-(((2R,3R,4S)-4-(benzamidomethyl)-3,4-dihydroxytetrahydrofuran-2-yl)methyl)-3,4-dimethylbenzamide]
[1]
  Pretreat (100 μM): percentage Colony Forming Units (CFU's) per biofilm: 79.13 percentage
[2]
  Combin. (100 μM): percentage Colony Forming Units (CFU's) per biofilm: 65.66 percentage

## O=C(NC[C@]1(O)CO[C@H](CNS(=O)(=O)c2ccc(-c3ccccc3)cc2)[C@H]1O)c1ccccc1 [compound 219, N-(((3S,4R,5R)-5-(([1,1′-biphenyl]-4-sulfonamido)methyl)-3,4-dihydroxytetrahydrofuran-3-yl)methyl)benzamide]
[1]
  Pretreat (100 μM): percentage Colony Forming Units (CFU's) per biofilm: 16.13 percentage
[2]
  Combin. (100 μM): percentage Colony Forming Units (CFU's) per biofilm: 17.02 percentage

## O=C(NC[C@]1(O)CO[C@H](CNS(=O)(=O)c2ccccc2Cl)[C@H]1O)c1ccccc1 [compound 218, N-(((3S,4R,5R)-5-(((2-chlorophenyl)sulfonamido)methyl)-3,4-dihydroxytetrahydrofuran-3-yl)methyl)benzamide]
[1]
  Pretreat (100 μM): percentage Colony Forming Units (CFU's) per biofilm: 35.03 percentage
[2]
  Combin. (100 μM): percentage Colony Forming Units (CFU's) per biofilm: 26.88 percentage

## O=C(NC[C@]1(O)CO[C@H](CNC(=O)c2ccccc2Br)[C@H]1O)c1ccccc1 [compound 178, N-(((2R,3R,4S)-4-(benzamidomethyl)-3,4-dihydroxytetrahydrofuran-2-yl)methyl)-2-bromobenzamide]
[1]
  Pretreat (100 μM): percentage Colony Forming Units (CFU's) per biofilm: 4.10 percentage
  EC50: 9.85 µM
[2]
  Combin. (100 μM): percentage Colony Forming Units (CFU's) per biofilm: 17.51 percentage
  EC50: 19.7 µM

## O=C(NC[C@H]1OC[C@@](O)(CNC(=O)c2ccccc2)[C@@H]1O)c1ccc(Cl)nc1 [compound 202, N-(((2R,3R,4S)-4-(benzamidomethyl)-3,4-dihydroxytetrahydrofuran-2-yl)methyl)-6-chloronicotinamide]
[1]
  Pretreat (100 μM): percentage Colony Forming Units (CFU's) per biofilm: 14.00 percentage
[2]
  Combin. (100 μM): percentage Colony Forming Units (CFU's) per biofilm: 18.24 percentage
